# Publication PMC11233931, “Remodeling tumor‐associated macrophage for anti‐cancer effects by rational design of irreversible inhibition of mitogen‐activated protein kinase‐activated protein kinase 2” (MedComm, 2024)
# How the values were obtained:
# Test in all cases: Eurofins kinase selectivity profile against 380 other human recombinant kinases (Table S2)
# Assay type in all cases: biochemical
# [1] = target: T1, 380 human recombinant protein kinases (Homo sapiens, UniProt Q9P289); details: MST4(h), read-out: Inhibition rate
# T1 construct: purchased Eurofins (Celle Lévescault)
# Method in brief: (§1)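 Off-target profiling: one compound assayed by a commercial provider over 380 recombinant human protein kinases at various concentrations.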
# [2] = target: T2, 380 human recombinant protein kinases (Homo sapiens, UniProt Q9Y5S2); details: MRCKβ(h), read-out: Inhibition rate
# T2 construct: purchased Eurofins (Celle Lévescault)
# T2 sequence (Q9Y5S2 whole entry): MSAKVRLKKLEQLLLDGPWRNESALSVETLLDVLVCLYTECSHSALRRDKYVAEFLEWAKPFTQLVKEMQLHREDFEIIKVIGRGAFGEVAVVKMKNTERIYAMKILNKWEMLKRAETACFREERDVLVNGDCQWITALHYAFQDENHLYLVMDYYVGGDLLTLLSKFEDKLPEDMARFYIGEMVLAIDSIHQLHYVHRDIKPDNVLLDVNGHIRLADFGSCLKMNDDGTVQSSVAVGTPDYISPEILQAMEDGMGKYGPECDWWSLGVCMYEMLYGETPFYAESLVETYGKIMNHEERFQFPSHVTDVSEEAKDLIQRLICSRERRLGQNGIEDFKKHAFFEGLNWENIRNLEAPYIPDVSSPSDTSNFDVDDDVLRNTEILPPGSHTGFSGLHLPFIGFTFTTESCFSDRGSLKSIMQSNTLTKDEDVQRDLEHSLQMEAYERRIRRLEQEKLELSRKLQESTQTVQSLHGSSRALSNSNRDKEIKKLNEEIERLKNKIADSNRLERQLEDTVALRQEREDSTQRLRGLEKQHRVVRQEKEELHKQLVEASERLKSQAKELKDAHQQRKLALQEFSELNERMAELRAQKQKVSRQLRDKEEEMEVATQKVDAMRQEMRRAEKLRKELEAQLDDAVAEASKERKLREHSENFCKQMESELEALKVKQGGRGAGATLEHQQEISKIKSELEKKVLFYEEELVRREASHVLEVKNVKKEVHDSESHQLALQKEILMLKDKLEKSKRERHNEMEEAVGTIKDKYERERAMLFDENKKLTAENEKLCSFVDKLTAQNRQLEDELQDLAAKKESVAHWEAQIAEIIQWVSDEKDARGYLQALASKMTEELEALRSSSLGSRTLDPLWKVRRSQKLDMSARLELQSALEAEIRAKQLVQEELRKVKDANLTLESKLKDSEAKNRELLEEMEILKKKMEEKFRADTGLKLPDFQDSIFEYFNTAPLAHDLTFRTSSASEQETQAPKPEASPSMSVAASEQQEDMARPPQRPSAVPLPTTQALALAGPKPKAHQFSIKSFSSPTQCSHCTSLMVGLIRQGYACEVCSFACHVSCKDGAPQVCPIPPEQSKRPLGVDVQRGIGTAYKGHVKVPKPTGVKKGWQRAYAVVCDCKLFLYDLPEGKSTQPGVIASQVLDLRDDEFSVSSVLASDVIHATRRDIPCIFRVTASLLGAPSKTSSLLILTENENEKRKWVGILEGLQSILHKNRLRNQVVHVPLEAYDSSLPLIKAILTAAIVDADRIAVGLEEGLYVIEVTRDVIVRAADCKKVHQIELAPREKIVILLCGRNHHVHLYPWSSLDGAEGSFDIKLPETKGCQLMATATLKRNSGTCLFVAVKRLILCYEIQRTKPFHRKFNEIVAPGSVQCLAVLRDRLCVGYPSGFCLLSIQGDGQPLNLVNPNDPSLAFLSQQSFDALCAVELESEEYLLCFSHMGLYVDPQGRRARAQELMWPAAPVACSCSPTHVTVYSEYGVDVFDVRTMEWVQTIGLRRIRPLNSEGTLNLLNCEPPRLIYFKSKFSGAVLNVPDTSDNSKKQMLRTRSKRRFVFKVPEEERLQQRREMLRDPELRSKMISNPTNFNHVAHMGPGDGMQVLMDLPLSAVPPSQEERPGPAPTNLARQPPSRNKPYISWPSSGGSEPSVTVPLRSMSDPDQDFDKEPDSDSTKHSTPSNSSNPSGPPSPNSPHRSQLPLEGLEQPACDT
# Method in brief: as §1
# [3] = target: T3, 380 human recombinant protein kinases (Homo sapiens, UniProt Q9UQM7); details: CaMKIIα(h), read-out: Inhibition rate
# T3 construct: purchased Eurofins (Celle Lévescault)
# T3 sequence (Q9UQM7 whole entry): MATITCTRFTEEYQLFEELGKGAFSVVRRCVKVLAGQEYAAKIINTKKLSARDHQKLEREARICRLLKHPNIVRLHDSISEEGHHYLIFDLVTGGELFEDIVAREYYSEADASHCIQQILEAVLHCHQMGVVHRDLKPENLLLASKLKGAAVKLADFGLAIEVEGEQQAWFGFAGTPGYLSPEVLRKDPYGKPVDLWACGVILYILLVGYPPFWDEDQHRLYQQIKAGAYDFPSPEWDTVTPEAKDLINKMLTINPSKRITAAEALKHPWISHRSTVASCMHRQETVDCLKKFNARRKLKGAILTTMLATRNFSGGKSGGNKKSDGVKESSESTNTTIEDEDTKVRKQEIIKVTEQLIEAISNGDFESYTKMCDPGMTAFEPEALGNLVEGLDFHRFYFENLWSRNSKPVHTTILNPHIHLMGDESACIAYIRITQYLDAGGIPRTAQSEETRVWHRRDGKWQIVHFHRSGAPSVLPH
# Method in brief: as §1
# [4] = target: T4, 380 human recombinant protein kinases (Homo sapiens, UniProt Q6DT37); details: MRCKγ(h), read-out: Inhibition rate
# T4 construct: purchased Eurofins (Celle Lévescault)
# Method in brief: as §1
# [5] = target: T5, 380 human recombinant protein kinases (Homo sapiens, UniProt Q6P2M8); details: CaMKIß(h), read-out: Inhibition rate
# T5 construct: purchased Eurofins (Celle Lévescault)
# Method in brief: as §1
# [6] = target: T6, 380 human recombinant protein kinases (Homo sapiens, UniProt P53355); details: DAPK1(h), read-out: Inhibition rate
# T6 construct: purchased Eurofins (Celle Lévescault)
# T6 sequence (P53355 whole entry): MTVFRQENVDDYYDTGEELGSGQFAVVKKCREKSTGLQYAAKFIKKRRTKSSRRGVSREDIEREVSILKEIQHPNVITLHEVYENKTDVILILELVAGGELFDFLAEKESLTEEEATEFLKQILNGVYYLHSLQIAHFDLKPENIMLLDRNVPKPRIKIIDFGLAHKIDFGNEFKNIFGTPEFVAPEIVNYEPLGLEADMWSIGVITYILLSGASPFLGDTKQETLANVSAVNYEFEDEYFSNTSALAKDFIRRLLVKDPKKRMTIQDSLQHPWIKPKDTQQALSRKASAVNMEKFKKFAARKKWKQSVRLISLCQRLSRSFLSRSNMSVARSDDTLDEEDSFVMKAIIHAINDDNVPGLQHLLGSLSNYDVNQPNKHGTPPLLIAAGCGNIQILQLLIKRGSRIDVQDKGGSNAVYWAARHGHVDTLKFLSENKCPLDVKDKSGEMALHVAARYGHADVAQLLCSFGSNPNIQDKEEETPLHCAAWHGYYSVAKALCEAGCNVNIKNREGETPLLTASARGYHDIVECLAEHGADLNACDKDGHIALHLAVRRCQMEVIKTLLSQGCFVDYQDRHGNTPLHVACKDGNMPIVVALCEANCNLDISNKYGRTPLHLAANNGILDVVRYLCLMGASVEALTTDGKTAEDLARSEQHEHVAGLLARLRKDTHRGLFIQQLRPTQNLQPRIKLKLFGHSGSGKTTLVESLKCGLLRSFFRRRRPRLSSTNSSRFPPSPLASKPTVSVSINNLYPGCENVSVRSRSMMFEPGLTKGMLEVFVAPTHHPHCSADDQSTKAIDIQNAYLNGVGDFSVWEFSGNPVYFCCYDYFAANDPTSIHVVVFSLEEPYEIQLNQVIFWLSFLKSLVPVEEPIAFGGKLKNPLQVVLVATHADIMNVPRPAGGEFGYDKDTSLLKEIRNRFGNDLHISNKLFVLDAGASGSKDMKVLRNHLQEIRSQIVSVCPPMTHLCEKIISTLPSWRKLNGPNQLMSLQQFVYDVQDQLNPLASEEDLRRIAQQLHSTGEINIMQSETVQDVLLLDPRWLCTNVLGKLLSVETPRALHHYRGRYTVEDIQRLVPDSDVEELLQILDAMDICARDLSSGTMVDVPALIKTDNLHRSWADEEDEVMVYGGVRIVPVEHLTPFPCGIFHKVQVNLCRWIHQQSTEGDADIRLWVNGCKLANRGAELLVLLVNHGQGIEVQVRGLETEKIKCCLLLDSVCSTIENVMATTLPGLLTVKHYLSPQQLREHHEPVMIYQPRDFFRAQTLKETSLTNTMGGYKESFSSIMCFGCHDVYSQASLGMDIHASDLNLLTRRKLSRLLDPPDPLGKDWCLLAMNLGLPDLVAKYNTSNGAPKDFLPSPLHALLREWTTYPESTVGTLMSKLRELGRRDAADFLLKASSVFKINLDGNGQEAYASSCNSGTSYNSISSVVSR
# Method in brief: as §1
# [7] = target: T7, 380 human recombinant protein kinases (Homo sapiens, UniProt Q9H093); details: NUAK2(h), read-out: Inhibition rate
# T7 construct: purchased Eurofins (Celle Lévescault)
# T7 sequence (Q9H093 1-628): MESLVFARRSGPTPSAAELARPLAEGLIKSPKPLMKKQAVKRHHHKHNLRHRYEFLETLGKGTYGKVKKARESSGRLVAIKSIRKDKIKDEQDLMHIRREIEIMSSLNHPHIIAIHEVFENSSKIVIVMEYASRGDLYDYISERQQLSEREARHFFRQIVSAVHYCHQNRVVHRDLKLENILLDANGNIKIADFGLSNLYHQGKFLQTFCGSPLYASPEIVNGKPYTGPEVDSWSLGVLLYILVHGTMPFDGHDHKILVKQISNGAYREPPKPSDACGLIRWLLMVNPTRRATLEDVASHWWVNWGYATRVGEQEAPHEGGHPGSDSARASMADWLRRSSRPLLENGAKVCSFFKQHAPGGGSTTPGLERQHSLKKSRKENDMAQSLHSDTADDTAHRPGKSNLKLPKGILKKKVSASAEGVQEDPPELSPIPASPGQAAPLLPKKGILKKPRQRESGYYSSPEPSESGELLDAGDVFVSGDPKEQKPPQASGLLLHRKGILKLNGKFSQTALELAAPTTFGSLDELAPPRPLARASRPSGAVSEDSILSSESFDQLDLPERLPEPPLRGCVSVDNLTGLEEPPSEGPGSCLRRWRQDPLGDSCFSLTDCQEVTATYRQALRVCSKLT
# Method in brief: as §1
# [8] = target: T8, 380 human recombinant protein kinases (Homo sapiens, UniProt P15056, V600E); details: B-Raf(V599E)(h), read-out: Inhibition rate
# T8 construct: purchased Eurofins (Celle Lévescault)
# Method in brief: as §1
# [9] = target: T9, 380 human recombinant protein kinases (Homo sapiens, UniProt Q9BYP7); details: WNK3(h), read-out: Inhibition rate (%)
# T9 construct: purchased Eurofins (Celle Lévescault)
# Method in brief: as §1
# [10] = target: T10, 380 human recombinant protein kinases (Homo sapiens, UniProt Q15303); details: ErbB4(h), read-out: Inhibition rate
# T10 construct: purchased Eurofins (Celle Lévescault)
# T10 sequence (Q15303 26-1308): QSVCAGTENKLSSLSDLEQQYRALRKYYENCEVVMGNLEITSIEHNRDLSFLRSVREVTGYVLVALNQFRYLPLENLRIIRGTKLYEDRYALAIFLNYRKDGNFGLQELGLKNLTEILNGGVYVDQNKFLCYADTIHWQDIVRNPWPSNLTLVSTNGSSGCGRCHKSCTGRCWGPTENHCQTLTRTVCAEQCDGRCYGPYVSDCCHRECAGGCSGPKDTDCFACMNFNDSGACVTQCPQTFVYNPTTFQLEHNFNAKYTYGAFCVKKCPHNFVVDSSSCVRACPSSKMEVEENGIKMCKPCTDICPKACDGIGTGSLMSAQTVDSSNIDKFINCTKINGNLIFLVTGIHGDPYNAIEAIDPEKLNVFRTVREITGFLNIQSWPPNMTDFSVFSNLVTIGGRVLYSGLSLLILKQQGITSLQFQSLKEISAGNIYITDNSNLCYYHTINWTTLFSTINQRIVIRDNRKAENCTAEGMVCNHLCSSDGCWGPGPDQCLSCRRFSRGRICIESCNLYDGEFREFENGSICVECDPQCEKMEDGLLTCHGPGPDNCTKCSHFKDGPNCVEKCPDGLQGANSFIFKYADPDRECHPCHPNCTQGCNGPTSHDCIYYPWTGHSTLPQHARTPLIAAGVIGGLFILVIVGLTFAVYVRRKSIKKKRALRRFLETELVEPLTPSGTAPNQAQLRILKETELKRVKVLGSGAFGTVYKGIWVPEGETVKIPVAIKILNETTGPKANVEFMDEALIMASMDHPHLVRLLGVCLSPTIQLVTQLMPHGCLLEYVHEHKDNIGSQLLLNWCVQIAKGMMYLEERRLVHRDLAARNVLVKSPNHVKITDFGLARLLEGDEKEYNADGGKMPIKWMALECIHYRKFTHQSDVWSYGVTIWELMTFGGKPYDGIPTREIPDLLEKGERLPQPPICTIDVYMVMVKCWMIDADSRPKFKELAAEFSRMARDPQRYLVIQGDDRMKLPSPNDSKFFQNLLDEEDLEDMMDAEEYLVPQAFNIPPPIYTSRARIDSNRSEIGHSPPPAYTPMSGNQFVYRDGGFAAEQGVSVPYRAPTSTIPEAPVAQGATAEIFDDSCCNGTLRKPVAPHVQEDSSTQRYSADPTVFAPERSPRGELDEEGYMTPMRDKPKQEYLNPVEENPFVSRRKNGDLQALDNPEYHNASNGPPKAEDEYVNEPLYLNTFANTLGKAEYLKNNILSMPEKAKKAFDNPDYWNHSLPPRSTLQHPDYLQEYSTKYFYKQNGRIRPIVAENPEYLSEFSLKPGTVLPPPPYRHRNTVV
# Method in brief: as §1
# [11] = target: T11, 380 human recombinant protein kinases (Homo sapiens, UniProt P17948); details: Flt1(h), read-out: Inhibition rate
# T11 construct: purchased Eurofins (Celle Lévescault)
# Method in brief: as §1
# [12] = target: T12, 380 human recombinant protein kinases (Homo sapiens, UniProt O96013); details: PAK4(h), read-out: Inhibition rate
# T12 construct: purchased Eurofins (Celle Lévescault)
# Method in brief: as §1
structure (smiles),measurement,setting,value
C=CC(=O)Nc1cc(-c2cc(-c3cc4c([nH]3)CCNC4=O)ccn2)ccc1OC(F)(F)F [compound 11],inhibition at 0.01 µM,[1]; 10 nM,-5%
same,inhibition at 0.1 µM,[1]; 100 nM,-8%
same,inhibition at 1 µM,[1]; 1000 nM,2%
same,inhibition at 0.01 µM,[2]; 10 nM,8%
same,inhibition at 0.1 µM,[2]; 100 nM,0%
same,inhibition at 1 µM,[2]; 1000 nM,10%
same,inhibition at 0.01 µM,[3]; 10 nM,-3%
same,inhibition at 0.1 µM,[3]; 100 nM,-4%
same,inhibition at 1 µM,[3]; 1000 nM,-2%
same,inhibition at 0.01 µM,[4]; 10 nM,-13%
same,inhibition at 0.1 µM,[4]; 100 nM,2%
same,inhibition at 1 µM,[4]; 1000 nM,12%
same,inhibition at 0.01 µM,[5]; 10 nM,-6%
same,inhibition at 0.1 µM,[5]; 100 nM,-2%
same,inhibition at 1 µM,[5]; 1000 nM,-2%
same,inhibition at 0.01 µM,[6]; 10 nM,2%
same,inhibition at 0.1 µM,[6]; 100 nM,5%
same,inhibition at 1 µM,[6]; 1000 nM,12%
same,inhibition at 0.01 µM,[7]; 10 nM,-16%
same,inhibition at 0.1 µM,[7]; 100 nM,-8%
same,inhibition at 1 µM,[7]; 1000 nM,8%
same,inhibition at 0.01 µM,[8]; 10 nM,-6%
same,inhibition at 0.1 µM,[8]; 100 nM,-14%
same,inhibition at 1 µM,[8]; 1000 nM,-2%
same,inhibition at 0.01 µM,[9]; 10 nM,0%
same,inhibition at 0.1 µM,[9]; 100 nM,7%
same,inhibition at 1 µM,[9]; 1000 nM,9%
same,inhibition at 0.01 µM,[10]; 10 nM,-15%
same,inhibition at 0.1 µM,[10]; 100 nM,-3%
same,inhibition at 1 µM,[10]; 1000 nM,6%
same,inhibition at 0.01 µM,[11]; 10 nM,-24%
same,inhibition at 0.1 µM,[11]; 100 nM,-17%
same,inhibition at 1 µM,[11]; 1000 nM,-11%
same,inhibition at 0.01 µM,[12]; 10 nM,2%
same,inhibition at 0.1 µM,[12]; 100 nM,-2%
same,inhibition at 1 µM,[12]; 1000 nM,2%
